# According to patent US8357350B2, “Annulus fibrosus detection in intervertebral discs using molecular imaging agents” (General Electric Company, priority 2009, dated 2013):
# Columns and labels:
# [1] = Absorbance and fluorescence spectra of FM fluorophores in solvents; type: physicochemical; settings: for Em nm (MeOH): emission maximum in MeOH; for Em nm (PBS): emission maximum in PBS; for Ex nm (MeOH): excitation maximum in MeOH; for Ex nm (PBS): excitation maximum in PBS
# Procedure: (§1) Absorbance and fluorescence spectra of the FM fluorophores were measured in PBS and absolute methanol (MeOH) using fiber-optic HR2000 (200-1100 nm) and USB2000FL (350-1000 nm) spectrometers (Ocean Optics, Dunedin, Fla.), respectively. Fluorescence excitation was provided by a 2 mW, 532 nm laser diode. The fluorescence and absorbance spectra of FORMULA II and FORMULA IA were collected in dimethyl sulfoxide (DMSO) and fetal bovine serum (FBS), as well as MeOH and PBS. The quantum yield of FORMULA II and FORMULA IA in DMSO, MeOH, FBS and PBS was measured by comparing the integrated fluorescence emission of the fluorophores in each solvent to the emission of Alexa Fluor 555 (Invitrogen) in PBS (quantum yield=10%) as a reference standard under conditions of matched absorbance at the excitation wavelength. The LogD of each FM fluorophore at pH 7.5 was calculated using Marvin 5.0.3 software (ChemAxon, Budapest, Hungary).
# dorsal root ganglia [2] = experiment: FM fluorophore uptake, intraoperative fluorescence imaging; type: in vivo, mice and rats; settings: 5 mg/kg mice, 0.5 mg/kg rats IP, 16 hours before imaging; signal normalized to muscle, vs vehicle control; also: key: +: Positive contrast was concluded if the nerve-to-muscle contrast ratio of FM fluorophore-injected animals was elevated relative to control animals
# Procedure: (§2) Imaging was carried out at near infrared wavelenghts using a 400- to 700-nm “white” light (0.5 mW/cm^2) and a 725- to 775-nm NIR fluorescence excitation light (5 mW/cm^2). Fluorescence images were collected using exposure times ranging from 500 to 2000 msec. All images collected for comparison between vehicle-injected control animals and FM fluorophore-injected animals had the same exposure time and normalization. Color video images were collected on a separate optical channel using custom designed software. The excitation and emission LEDs and filter used for the FM fluorophores and Pam800 in the intraoperative imaging system are described as follows. For fluorescence excitation of FM 1-43, FM 2-10, FM 1-43FX and Formula IA, sixty 5-mm 470 nm LEDs ([…], Inc., Kyoto, Japan) fitted with 470±20 nm band pass (BP) excitation filters (Chroma Technology, Rockingham, Vt.) in custom holders were used, which produced a fluence rate on the imaging surface of 0.56 mW/cm^2. For fluorescence excitation of Formula II, FM 4-64, FM 4-64FX and FM 5-95, sixty 5-mm 535 nm LEDs fitted with 525±25 nm BP excitation filters were used, which produced a fluence rate on the imaging surface of 0.34 mW/cm^2. A 610±38 nm BP filter was used to detect fluorescence emission of FM 1-43, FM 2-10, Formula II, FM 1-43FX and Formula IA. To detect fluorescence emission of FM 4-64, FM 4-64FX and FM 5-95 a 720 nm long pass (LP) filter was used. For fluorescence excitation of Pam800, 348 5-mm 760 nm LEDs fitted with 764±17 nm BP excitation filters were used, which produced a fluence rate on the imaging surface of 8.73 mW/cm^2 and fluorescence emission was detected using a 824±24 nm BP emission filter. To assess the structure-activity relationship of the FM fluorophores, each molecule was administered at 5 mg/kg to mice and 0.5 mg/kg to rats (n=4 per group) in 10% DMSO and 90% PBS IP 16 hours before imaging with the intraoperative system. The fluorescence signal from the spinal cord, intervertebral discs, dorsal root ganglia, trigeminal ganglia, optic nerve, brain and femoral nerve were normalized to muscle signal in the same image. This normalization ratio was then compared between FM fluorophore-injected animals and vehicle-injected control animals.
# intervertebral discs = experiment: as above; type: in vivo, mice and rats; as to Uptake: Intervertebral Disc: key: +: Positive contrast was concluded if the nerve-to-muscle contrast ratio of FM fluorophore-injected animals was elevated relative to control animals
# Procedure: as §2
# trigeminal ganglia = experiment: as above; type: in vivo, mice and rats; settings: 5 mg/kg mice, 0.5 mg/kg rats IP, 16 hours before imaging; signal normalized to muscle, vs vehicle control; also: key: +: Positive contrast was concluded if the nerve-to-muscle contrast ratio of FM fluorophore-injected animals was elevated relative to control animals
# Procedure: as §2
# dorsal root ganglia [3] = experiment: Histology and fluorescence microscopy of dorsal root ganglia; type: in vivo; settings: rat, 0.5 mg/kg, 16 h post-IP
# Procedure: Tissues from mice, rats and pig were preserved for microscopic assessment and localization of fluorescence signal. Tissues were extracted from the animal and placed in 2% paraformaldehyde in PBS for 2 to 4 hours before mounting in Tissue-Tek OCT compound (Fisher Scientific, Pittsburgh, Pa. ) and flash-freezing in liquid nitrogen. Each sample was cryo-sectioned (12 μm per slice); one slide was stained with hematoxylin and eosin (H&E) and a consecutive section was used for fluorescence microscopy. For fluorescence microscopy, serial sections were imaged on a Nikon TE 300 microscope system equipped with a mercury excitation source (Chiu Technical Corporation, Kings Park, N.Y.), Orca-ER 12-bit camera (Hamamatsu, Bridgewater, N.J.), and IPLab software (BD Biosciences, Rockville, Md.), using the following excitation and emission filters combinations. To obtain fluorescence images of FM 4-64, the mercury light source was passed through a 540±15 nm BP excitation filter, 700 nm dichroic beam splitter and 720 nm LP emission filter. To obtain fluorescence images of FM 1-43FX and Formula IA, the mercury light source was passed through a 460±25 nm BP excitation filter, 505 nm dichroic beam splitter and a 610±38 nm BP emission filter. Exposure times were adjusted between 5 and 2000 ms for fluorescence images.
# [4] = Fluorescence quantum yield versus Alexa Fluor 555 reference; type: physicochemical; settings: highest in FBS among DMSO, MeOH, PBS
# Procedure: as §1
Em nm (MeOH) [1] [nm],Em nm (PBS) [1] [nm],Ex nm (MeOH) [1] [nm],Ex nm (PBS) [1] [nm],"blue shift of emission maximum in FBS ([1]; FBS compared to DMSO, MeOH or PBS)","fluorescence quantum yield, times higher in FBS [4] [times]",SMILES,Uptake: Dorsal Root Ganglia (dorsal root ganglia [2]),"Uptake: Intervertebral Disc (intervertebral discs; 5 mg/kg mice, 0.5 mg/kg rats IP, 16 hours before imaging, signal normalized to muscle, vs vehicle control)",contrast in the intervertebral discs (intervertebral discs; IP administration to mice and rats),Uptake: Trigeminal Ganglia (trigeminal ganglia),microscopic localisation of fluorescence in dorsal root ganglion (dorsal root ganglia [3])
622,628,507,490,,,CCN(CC)c1ccc(/C=C/c2cc[n+](CCC[N+](CC)(CC)CC)cc2)cc1.[Br-].[Br-] [FM 2-10],,,,+,
811,808,546,507,,,CCN(CC)c1ccc(/C=C/C=C/C=C/c2cc[n+](CCC[N+](CC)(CC)CC)cc2)cc1.[Br-].[Br-] [FM 4-64],+,,,+,significant fluorescence intensity was seen in the dense cellular regions
809,809,542,490,,,CCN(CC)c1ccc(C=CC=CC=Cc2cc[n+](CCC[N+](C)(C)C)cc2)cc1.[Br-].[Br-] [FM 5-95],+,,,+,

# Continued, compound first:
SMILES,Em nm (MeOH) [1] [nm],Em nm (PBS) [1] [nm],Ex nm (MeOH) [1] [nm],Ex nm (PBS) [1] [nm],"blue shift of emission maximum in FBS ([1]; FBS compared to DMSO, MeOH or PBS)","fluorescence quantum yield, times higher in FBS [4] [times]",Uptake: Dorsal Root Ganglia (dorsal root ganglia [2]),"Uptake: Intervertebral Disc (intervertebral discs; 5 mg/kg mice, 0.5 mg/kg rats IP, 16 hours before imaging, signal normalized to muscle, vs vehicle control)",contrast in the intervertebral discs (intervertebral discs; IP administration to mice and rats),Uptake: Trigeminal Ganglia (trigeminal ganglia),microscopic localisation of fluorescence in dorsal root ganglion (dorsal root ganglia [3])
CCCCN(CCCC)c1ccc(/C=C/c2cc[n+](CCC[N+](CC)(CC)CC)cc2)cc1.[Br-].[Br-] [FM 1-43],624,631,509,493,,,+,+,positive contrast,+,
"CCCCN(CCCC)c1ccc(/C=C/C=C/C=C/c2cc[n+](CCC[N+](CC)(CC)CC)cc2)cc1.[Br-].[Br-] [Formula II, 4-((1 E,3E,5E)-6-(4-(dibutylamino)phenyl)hexa-1,3,5-trienyl)-1-(3-(triethylammonio)propyl)pyridinium dibromide]",813,808,549,519,over 100 nm,10,,,,+,
